Measured values taken from patent US10993935B2, “Compositions and methods for treatment of lung infections” (priority 2018, dated 2021).
In brackets after ≈: the same amount, converted by molar mass. Like-named read-outs stand apart in the source and are kept apart here.

Assays:
P. aeruginosa biofilms [1] = assay: Viable cell assay in preformed biofilms (MTT); type: cell-based, Pseudomonas aeruginosa; details: PAO1, CF001, CF010; 24 h biofilms treated at 3×MIC
Experimental: (§1) FIGS. 3A-3B include graphs showing biofilm and cell viability reduction from treatment with TOB and/or RFX, where (FIG. 3A) biofilms were grown for 24 h in a 96-well plate and then treated with TOB, RFX, or TOB and RFX at a concentration of 3×MIC, or where (FIG. 3B) biofilms were grown for 24 h in a 96-well plate and then treated with TOB, RFX, or TOB and RFX at concentration of 3×MIC. Two-way ANOVA analysis was used with statistical significance set as a P value of <0.01 (****, P<0.0001; **, P<0.001; *, P<0.01).
Viable Cell Assay. Viable cell counts were done to determine the reduction of viable cells in preformed biofilms treated with TOB and/or RFX. Briefly, following biofilm reduction protocol, biofilms were grown in a flat bottom 96-well microplate (Corning) using 200 μl LB of 1.0-1.5×10^5 inoculum of lab and clinical strains of non-mucoid and mucoid P. aeruginosa for 24 h at 37° C. After incubation, the media was removed, and plate was washed with PBS twice. New LB media containing 1-5×MIC90 of TOB and/or RFX was added to the plate in a checkerboard pattern. After 24 h growth at 37° C., the media was removed and replaced with methylthiazoltetrazolium (MTT; Sigma). After 1 h incubation, DMSO was added and plates were read via OD at 570 nm using SpectraMax i3x plate reader to determine viable cell differences between TOB and/or RFX. […]

P. aeruginosa biofilms [2] = assay: Biofilm reduction assay (crystal violet); type: cell-based, Pseudomonas aeruginosa; details: PAO1, CF001, CF010; 24 h biofilms treated at 3×MIC
Experimental: as §1
Biofilm Reduction Assay. A biofilm reduction assay was used to determine the reduction of biofilms in P. aeruginosa strains by TOB and/or RFX. Briefly, biofilms were grown in a flat bottom 96-well microplate (Corning) using 200 μl LB of 1.0-1.5×10^5 inoculum of lab and clinical strains of non-mucoid and mucoid P. aeruginosa. After 24-30 h incubation at 37° C., the media was removed, and plates were washed with PBS. New media containing 1-5×MIC90 of TOB and/or RFX was added to the plate in a checkerboard pattern to determine synergy of biofilm reduction. After 24 h incubation at 37° C., the media was removed and 200 μl of 0.1% aqueous crystal violet was added and left at room temperature 0.5 h. […] The plates were then read via OD at 595 nm using SpectraMax i3x plate reader to compare biofilm dispersion between TOB and/or RFX. […]

[3] = tested on: P. aeruginosa PAO581 (PAO1mucA25); assay: NIH drug library screen for inhibition of growth, mucoidy and PalgD-lacZ colour; type: cell-based, Pseudomonas aeruginosa
[4] = tested on: Stenotrophomonas maltophilia; assay: RFX MIC testing against MDR clinical isolates; type: cell-based
Experimental: (§2) Minimum Inhibitory Concentration Testing. MIC testing was performed as previously described. Briefly, overnight culture of bacteria was diluted in 1:100 of a 0.5 McFarland standard as inoculum. The same number of cells was grown in LB broth containing serial, two-fold dilutions of rifaximin (RFX) or tobramycin (TOB). Growth was measured via optical density (OD) at 600 nm after 24 h incubation at 37° C. Concentrations of antibiotic required for inhibition of 50% and 90% of strains were determined.
(§3) Because RFX was not a traditional treatment for P. aeruginosa infections, it was first tested whether RFX was effective in vitro against P. aeruginosa and other bacterial pathogens seen in CF. Since RFX is not used for treatment of ventilator-associated pneumonia (VAP), it was thought the isolates of tracheal aspirates from VAP patients in the ICU may be sensitive to RFX. To determine the susceptibility to RFX, resistant isolates from the Cabell Huntington Hospital were chosen to measure the minimum inhibitory concentrations (MIC) for RFX (Table 3).
(§4) MIC50 and MIC90 are the concentrations of RFX required for the growth inhibition of 50% and 90% of strains, respectively.

Pseudomonas aeruginosa = assay: RFX MIC testing against MDR clinical isolates; type: cell-based
Experimental: as §2, §3, §4

Staphylococcus aureus = assay: RFX MIC testing against MDR clinical isolates; type: cell-based
Experimental: as §2, §3, §4

Burkholderia cepacia = assay: RFX MIC testing against MDR clinical isolates; type: cell-based
Experimental: as §2, §3, §4

Acinetobacter baumannii = assay: RFX MIC testing against MDR clinical isolates; type: cell-based
Experimental: as §2, §3, §4

[5] = tested on: clinical mucoid isolate from a CF patient; assay: Further test of screen hits on a clinical mucoid isolate; type: cell-based, Pseudomonas aeruginosa; details: compared with the other screen hits of Table 2
P. aeruginosa strains = assay: MIC and synergy testing (checkerboard/isobologram) of RFX and TOB; type: cell-based, Pseudomonas aeruginosa; details: strain CF003, NM
[6] = Solubility of RFX in nebulization solvents; type: physicochemical
Experimental: As treatment for traveler's diarrhea, RFX is a drug optimized for oral use. For RFX to be useful as a treatment for CF patients, it was determined whether RFX could be delivered to the lungs through nebulization. Nebulizing RFX was initially unsuccessful and more difficult than presumed. […] RFX was not soluble in water-based solutions, but was soluble in dimethyl-sulfoxide (DMSO) and ETOH (ethanol) in small volumes. […] However, 100% DMSO could be used to retain RFX in solution and deliver to the lungs as noted by HPLC data.

[7] = Stenotrophomonas maltophilia, 1 strain

For `NC[C@H]1O[C@H](O[C@H]2[C@H](O)[C@@H](O[C@H]3O[C@H](CO)[C@@H](O)[C@H](N)[C@H]3O)[C@H](N)C[C@@H]2N)[C@H](N)C[C@@H]1O` [TOB, tobramycin], the “viable cells in a preformed biofilm” value (P. aeruginosa biofilms [1]) was “significantly reduced the number of viable cells” and the “reduction of preformed biofilm (biofilm aggregates)” value (P. aeruginosa biofilms [2]) was “significantly reduced biofilm as compared to the untreated control”.

For `CO[C@H]1/C=C/O[C@@]2(C)Oc3c(C)c(O)c4c(O)c(c5c(nc6cc(C)ccn65)c4c3C2=O)NC(=O)/C(C)=C\C=C\[C@H](C)[C@H](O)[C@@H](C)[C@@H](O)[C@@H](C)[C@H](OC(C)=O)[C@@H]1C` [RFX, rifaximin], the “Growth 2 μM” value ([3]; drug at 2 μM, PAO581 on PIA) was “Reduced”, the “Mucoidy 2 μM” value ([3]; drug at 2 μM, PAO581 with pLP170-PalgD-lacZ on PIA + X-gal) was “Reduced” and the “Color 2 μM” value ([3]; drug at 2 μM, X-gal colour of PalgD-lacZ reporter, 'Light' wraps to 'Light Blue') was “Clear”. For the same compound, the “Growth 10 μM” value ([3]; drug at 10 μM, PAO581 on PIA) was “Inhibited”, the “Growth 50 μM” value ([3]; drug at 50 μM, PAO581 on PIA) was “Inhibited” and the MIC50 [4, 7] was 16 µg/mL (≈ 20.4 µM). The MIC90 [4, 7] was 16 µg/mL (≈ 20.4 µM), the “growth of clinical isolates” value ([4]; clinical isolates, in words) was “effectively inhibit the growth” and the MIC50 (Pseudomonas aeruginosa; 26 MDR clinical isolates, concentration inhibiting growth of 50% of strains) was 8 µg/mL (≈ 10.2 µM). The MIC90 (Pseudomonas aeruginosa; 26 MDR clinical isolates, concentration inhibiting growth of 90% of strains) was 16 µg/mL (≈ 20.4 µM), the MIC50 (Pseudomonas aeruginosa; Pseudomonas aeruginosa, MDR P. aeruginosa, read-out: MIC50) was 8 µg/mL (≈ 10.2 µM) and the MIC90 (Pseudomonas aeruginosa; Pseudomonas aeruginosa, MDR P. aeruginosa, read-out: MIC90) was 16 µg/mL (≈ 20.4 µM). The MIC50 (Staphylococcus aureus; 22 strains, concentration inhibiting growth of 50% of strains) was 2 µg/mL (≈ 2.54 µM), the MIC90 (Staphylococcus aureus; 22 strains, concentration inhibiting growth of 90% of strains) was 16 µg/mL (≈ 20.4 µM) and the MIC50 (Staphylococcus aureus; MDR S. aureus including MRSA) was 2 µg/mL (≈ 2.54 µM). For the same compound, the MIC90 (Staphylococcus aureus; MDR S. aureus including MRSA) was 16 µg/mL (≈ 20.4 µM), the MIC50 (Burkholderia cepacia; Burkholderia cepacia, 4 strains, concentration inhibiting growth of 50% of strains) was 16 µg/mL (≈ 20.4 µM) and the MIC90 (Burkholderia cepacia; Burkholderia cepacia, 4 strains, concentration inhibiting growth of 90% of strains) was 32 µg/mL (≈ 40.7 µM). The “growth of clinical isolates” value (Burkholderia cepacia; clinical isolates, in words) was “effectively inhibit the growth”, the MIC50 (Acinetobacter baumannii; Acinetobacter baumannii, 9 strains, concentration inhibiting growth of 50% of strains) was under 0.5 µg/mL and the MIC90 (Acinetobacter baumannii; Acinetobacter baumannii, 9 strains, concentration inhibiting growth of 90% of strains) was under 0.5 µg/mL. For the same compound, the “growth of clinical isolates” value (Acinetobacter baumannii; clinical isolates, in words) was “effectively inhibit the growth”, the “inhibition of growth and mucoidy” value [5] was “most effective drug to inhibit the growth and mucoidy” and the “FIC RFX” value (P. aeruginosa strains) was 0.25. For the same compound, the “MIC RFX in Combination” value (P. aeruginosa strains; in combination with TOB) was 1, the solubility ([6]; in 20%, 40%, and 80% DMSO in PBS, came out of solution on nebulization) was “partially or fully dissolve” and the solubility ([6]; in DMSO) was “readily soluble”. The solubility ([6]; in PBS or saline) was “did not dissolve”, the solubility ([6]; in dimethyl-sulfoxide (DMSO) and ETOH (ethanol) in small volumes) was “soluble” and the solubility ([6]; in water) was “only sparingly soluble”. The solubility ([6]; in water-based solutions) was “not soluble”.
